From patent publication US6515159B2, “S,S-ethylenediamine-N,N′-disuccinic acid iron alkali salt and a process for production thereof” (Mitsubishi Rayon Co., Ltd., priority 1997, dated 2003)

How the values were obtained:
[1] = storage stability of 40% aqueous solution (dissolution state after storage); format: physicochemical; conditions: 40% aqueous solution stored at 50° C. for 1 week, then diluted to 1%
Protocol: Each of the powders obtained in Examples 1, 10 and 13 and Comparative Examples 1 and 3 was dissolved to obtain a 40% aqueous solution. The solution was stored at 50° C. for 1 week and then diluted to 1% and the dissolution state of the resulting diluted solution was observed.

SMILES	dissolution state of the resulting diluted solution [1]	pH of aqueous solution
O=C([O-])C[C@H](NCCN[C@@H](CC(=O)[O-])C(=O)[O-])C(=O)[O-].[Fe+3].[Na+] [Example 1, S,S-ethylenediamine-N,N′-disuccinic acid iron sodium salt]	no insoluble material was found	
O=C(O)C[C@H](NCCN[C@@H](CC(=O)O)C(=O)O)C(=O)O [S,S-ethylenediamine-N,N′-disuccinic acid]		~2
